# Read-outs that look alike come from different tables or passages of the source.
# What was measured:
# [1] = molecular target: T1, A2a receptor cell membrane (human origin) (Homo sapiens, UniProt P29274); experiment: Competitive inhibition constant (Ki) for adenosine A2a receptor, [3H]-CGS-21680 radioligand binding; conditions: for Ki(A1)/Ki(A2a): selectivity ratio A1 over A2a
# T1 construct: purchased PerkinElmer RBHA2AM400UA
# Protocol: A2a receptor cell membrane (human origin): PerkinElmer, RBHA2AM400UA
# A2a test buffer: 50 mM Tris-HCl, 10 mM MgCl2, 1 mM EDTA, pH7.4
# (§1) The A1 receptor cell membrane was diluted to 0.025 μg/μl with the A1 test buffer and the A2a receptor cell membrane was diluted to 0.05 μg/μl with the A2a test buffer to obtain an A1 receptor cell membrane dilution and an A2a receptor cell membrane dilution.
# (§2) The tested compound and CGS15943 were gradiently diluted with DMSO. 1 μl test compound, high-value control (0.5% DMSO), low-value control (1000 nM CGS15943) were added to a 96-well plate, wherein each well was added with 100 μl A1 receptor cell membrane dilution (containing 2.5 μg cell membrane) to obtain an A1 detection plate. Through the same steps, 100 μl A2a receptor cell membrane dilution (containing 5.0 μg cell membrane) was added to each well of a 96-well plate to obtain an A2a detection plate.
# The A1 and A2a detection plates were sealed with a tap, and incubated at room temperature for 1 h and 2 h, respectively.
# (§3) Unifilter-96 GF/C filter plate was prepared. The Unifilter-96 GF/C filter plate was added with 50 μl 0.3% PEI in each well, and incubated at room temperature for no less than 0.5 h.
# (§4) After the incubation, the reaction solutions in the A1 detection plate and the A2a detection plate were transferred to two Unifilter-96 GF/C filter plates. The filter plates were washed with the corresponding pre-cooled washing buffers, then oven dried. After sealing the bottom of the filter plates, 50 μl of Microscint 20 cocktail scintillation fluid was added. After sealing the top of the filter plates, the plates were read in the counter MicroBeta2 Reader.
# (§5) Data analysis: The inhibition rate was calculated according to the following formula:
# (§6) Inhibition rate %=100−(the signal value of the tested wells−the signal average of the low-value control)/(the signal average of the high-value control−the signal average of the low-value control)*100.
# (§7) IC50 was fitted by EXCEL XLfit. The competitive inhibition constant (Ki) was calculated according to the formula: Ki=IC50/(1+the concentration of the isotope-labelled ligands/Kd); Kd is the dissociation constant of the isotope-labeled ligands.
# [2] = molecular target: T2, A1 receptor cell membrane (human origin) (Homo sapiens, UniProt P30542); experiment: Competitive inhibition constant (Ki) for adenosine A1 receptor, [3H]-DPCPX radioligand binding; conditions: [3H]-DPCPX 1.0 nM
# T2 construct: purchased PerkinElmer ES-010-M400UA
# T2 sequence (P30542 1-326): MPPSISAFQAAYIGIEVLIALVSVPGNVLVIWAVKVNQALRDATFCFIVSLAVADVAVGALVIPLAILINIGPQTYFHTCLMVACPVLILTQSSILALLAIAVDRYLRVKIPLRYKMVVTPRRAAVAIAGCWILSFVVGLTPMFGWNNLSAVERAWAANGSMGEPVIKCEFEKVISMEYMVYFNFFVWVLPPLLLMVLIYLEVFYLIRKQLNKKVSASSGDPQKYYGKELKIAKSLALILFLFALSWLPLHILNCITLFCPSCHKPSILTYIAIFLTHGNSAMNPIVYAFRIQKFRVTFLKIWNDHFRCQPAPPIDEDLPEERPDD
# Protocol: Experimental Example 1: Determination of the Competitive Inhibition Constant (Ki) for Adenosine A1 and A2a Receptors
# [^3H]-DPCPX: PerkinElmer, NET974250UC
# A1 receptor cell membrane (human origin): PerkinElmer, ES-010-M400UA
# A1 test buffer: 25 mM HEPES, 5 mM MgCl2, 1 mM CaCl2, 100 mM NaCl, pH7.4
# A1 washing buffer: 25 mM HEPES, 5 mM MgCl2, 1 mM CaCl2, 100 mM NaCl, pH7.4
# as §1, §2
# 100 μl of radioisotope-labelled ligand [^3H]-DPCPX (diluted in A1 test buffer, working concentration 1.0 nM) was added to the A1 detection plate, and 100 μl of radioisotope-labelled ligand [^3H]-CGS-21680 (diluted in A2a test buffer, working concentration 6.0 nM) was added to the A2a detection plate. The A1 and A2a detection plates were sealed with a tap, and incubated at room temperature for 1 h and 2 h, respectively.
# as §3, §4, §5, §6, §7
# [3] = human A2a receptor cell membrane, [3H]-CGS-21680 6.0 nM, read-out: Ki(A2a)
# T1 sequence (P29274 whole entry): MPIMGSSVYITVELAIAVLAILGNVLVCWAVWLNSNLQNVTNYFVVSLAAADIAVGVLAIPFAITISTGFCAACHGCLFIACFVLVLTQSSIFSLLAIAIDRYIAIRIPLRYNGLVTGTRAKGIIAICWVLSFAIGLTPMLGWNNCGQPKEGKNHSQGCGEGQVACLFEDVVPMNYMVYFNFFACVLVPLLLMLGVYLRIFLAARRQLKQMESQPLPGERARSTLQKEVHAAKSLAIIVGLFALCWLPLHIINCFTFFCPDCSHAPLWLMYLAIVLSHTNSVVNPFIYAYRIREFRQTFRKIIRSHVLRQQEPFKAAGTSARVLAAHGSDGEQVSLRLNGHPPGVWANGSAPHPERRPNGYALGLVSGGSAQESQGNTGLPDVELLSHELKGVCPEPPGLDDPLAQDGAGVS
SMILES,Ki(A1)/Ki(A2a) [1],Ki [2],"Ki [1, 3]",Ki [1]
"Cc1cc(-c2cc(-c3cnn(CCC(N)=O)c3)c(N)nc2-c2ccc(F)cc2)cc(Cl)n1 [Compound 30, 3-(4-(6-amino-2′-chloro-2-(4-fluorophenyl)-6′-methyl-[3,4′-bipyridine]-5-yl)-1H-pyrazol-1-yl)propionamide]",38.0,1930 nM,,50.8 nM
"COCCn1cc(-c2cc(-c3ccc4ncnc(C)c4c3)c(-c3ccc(F)cc3)nc2N)cn1 [Compound 17, 6-(4-fluorophenyl)-3-(1-(2-methoxyethyl)-1H-pyrazol-4-yl)-5-(4-methylquinazolin-6-yl)pyridin-2-amine]",137.3,316 nM,,2.3 nM
"Cc1ccnc2ccc(-c3cc(-c4nnc(C(N)=O)o4)c(N)nc3-c3ccc(F)cc3)cc12 [Compound 29, 5-(2-amino-6-(4-fluorophenyl)-5-(4-methylquinolin-6-yl)pyridin-3-yl)-1,3,4-oxadiazol-2-carboxamide]",25.0,30 nM,1.2 nM,
"Cc1cc(-c2cc(-n3cc(C(N)=O)cn3)c(N)nc2-c2ccc(F)cc2)cc(Cl)n1 [Compound 26, 1-(6-amino-2′-chloro-2-(4-fluorophenyl)-6′-methyl-[3,4′-bipyridine]-5-yl)-1H-pyrazol-4-carboxamide]",,4850 nM,104 nM,
"Cc1ncnc2ccc(-c3cc(-c4nnn[nH]4)c(N)nc3-c3ccc(F)cc3)cc12 [Compound 9, 6-(4-fluorophenyl)-5-(4-methylquinazolin-6-yl)-3-(1H-tetrazol-5-yl) pyridin-2-amine]",85.3,1070 nM,12.6 nM,
"Cc1ncnc2ccc(-c3c(C#N)cc(N)nc3-c3ccc(F)cc3)cc12 [Compound 11, 6-amino-2-(4-fluorophenyl)-3-(4-methylquinazolin-6-yl) isonicotinonitrile]",146.5,205 nM,1.4 nM,
"Cc1ncnc2ccc(-c3cc(-n4cc(C(N)=O)cn4)c(N)nc3-c3ccc(F)cc3)cc12 [Compound 24, 1-(2-amino-6-(4-fluorophenyl)-5-(4-methylquinazolin-6-yl)pyridin-3-yl)-1H-pyrazol-4-carboxamide]",150.0,3480 nM,23.2 nM,
"Cc1ncnc2ccc(-c3cc(Br)c(N)nc3-c3ccc(F)cc3)cc12 [Compound 2, 3-bromo-6-(4-fluorophenyl)-5-(4-methylquinazolin-6-yl)pyridin-2-amine]",112.1,291 nM,2.6 nM,
"NC(=O)c1cc(-c2ccncc2)c(-c2cccc(F)c2)nc1N [Control compound 1, reference compound]",0.2,25.7 nM,138 nM,
"Cc1ncnc2ccc(-c3cc(C(N)=O)c(N)nc3-c3cc(F)cc(F)c3)cc12 [Compound 12, 2-amino-6-(3,5-difluorophenyl)-5-(4-methylquinazolin-6-yl) nicotinamide]",54.9,374 nM,6.8 nM,
"Cc1ncnc2ccc(-c3cc(-c4cnn(CCN(C)C)c4)c(N)nc3-c3ccc(F)cc3)cc12 [Compound 16, 3-(1-(2-(dimethylamino)ethyl)-1H-pyrazol-4-yl)-6-(4-fluorophenyl)-5-(4-methylquinazolin-6-yl)pyridin-2-amine]",82.6,1380 nM,16.7 nM,
"Cc1ccnc2ccc(-c3cc(C(N)=O)c(N)nc3-c3ccc(F)cc3)cc12 [Compound 22, 2-amino-6-(4-fluorophenyl)-5-(4-methylquinolin-6-yl)nicotinamide]",66.3,106 nM,1.6 nM,
"Cc1ncnc2ccc(-c3cc(C(N)=O)c(N)nc3-c3ccccc3F)cc12 [Compound 13, 2-amino-6-(2-fluorophenyl)-5-(4-methylquinazolin-6-yl) nicotinamide]",359.0,4380 nM,12.2 nM,
"Cc1ccnc2ccc(-c3cc(-c4cnn(CCC(N)=O)c4)c(N)nc3-c3ccc(F)cc3)cc12 [Compound 31, 3-(4-(2-amino-6-(4-fluorophenyl)-5-(4-methylquinolin-6-yl)pyridin-3-yl)-1H-pyrazol-1-yl)propionamide]",91.0,146 nM,,1.6 nM
"Cc1ncnc2ccc(-c3c(Cl)cc(N)nc3-c3ccc(F)cc3)cc12 [Compound 10, 4-chloro-6-(4-fluorophenyl)-5-(4-methylquinazolin-6-yl)pyridin-2-amine]",219.0,438 nM,2 nM,

# The next lines start with results.
Ki(A1)/Ki(A2a) [1],Ki [2],"Ki [1, 3]",SMILES,Ki [1]
339.0,,,"Cc1ncnc2ccc(-c3ccc(N)nc3-c3ccc(F)cc3)cc12 [Compound 1, 6-(4-fluorophenyl)-5-(4-methylquinazolin-6-yl)pyridin-2-amine]",
222.8,1090 nM,4.9 nM,"COC(=O)c1cc(-c2ccc3ncnc(C)c3c2)c(-c2ccc(F)cc2)nc1N [Compound 3, methyl 2-amino-6-(4-fluorophenyl)-5-(4-methylquinazolin-6-yl) nicotinate]",
293.5,7510 nM,25.6 nM,"Cc1ncnc2ccc(-c3cc(C(=O)O)c(N)nc3-c3ccc(F)cc3)cc12 [Compound 4, 2-amino-6-(4-fluorophenyl)-5-(4-methylquinazolin-6-yl)nicotinic acid]",
325.3,683 nM,2.1 nM,"Cc1ncnc2ccc(-c3cc(C#N)c(N)nc3-c3ccc(F)cc3)cc12 [Compound 5, 2-amino-6-(4-fluorophenyl)-5-(4-methylquinazolin-6-yl) nicotinonitrile]",
148.5,713 nM,4.8 nM,"Cc1ncnc2ccc(-c3cc(-c4cnn(C)c4)c(N)nc3-c3ccc(F)cc3)cc12 [Compound 8, 6-(4-fluorophenyl)-3-(1-methyl-1H-pyrazol-4-yl)-5-(4-methylquinazolin-6-yl)pyridin-2-amine]",
57.6,132 nM,2.3 nM,"Cc1ncnc2ccc(-c3cc(-c4nnc(C(N)=O)o4)c(N)nc3-c3ccc(F)cc3)cc12 [Compound 25, 5-(2-amino-6-(4-fluorophenyl)-5-(4-methylquinazolin-6-yl)pyridin-3-yl)-1,3,4-oxadiazol-2-carboxamide]",
245.0,4950 nM,20.2 nM,"CNC(=O)c1cc(-c2ccc3ncnc(C)c3c2)c(-c2ccc(F)cc2)nc1N [Compound 7, 2-amino-6-(4-fluorophenyl)-N-methyl-5-(4-methylquinazolin-6-yl) nicotinamide]",

# Reference: patent US20220017483A1, “AMINOPYRIDINE COMPOUND, PREPARATION METHOD THEREFOR AND USE THEREOF” (SICHUAN-KELUN-BIOTECH BIOPHARMACEUTICAL CO., LTD, priority 2018, published 2022)
